Drawing on US4871771A, “Leukotriene antagonists” (SmithKline Beckman Corporation, priority 1988, dated 1989), this text covers Ki for 21 compounds.

Test [1] concerns the target T1, [^3 H]-LTB4 binding sites on human U937 cell membranes (Homo sapiens, UniProt Q15722).
T1 construct: Harvested U937 cells were washed with 50 mM Tris-HCl; endogenous in cells; host or cells: U937 cells (membrane-enriched fraction)
Description: Receptor binding affinity: competition for [3H]-LTB4 binding sites on human U937 cell membranes. As to conditions: [3H]-LTB4 about 0.2 nM, 25°, 30 minutes.

Test [2] concerns the target T2, LTB4 Induced Ca^2 + flux (U937 cells) (Homo sapiens, UniProt Q15722).
T2 construct: endogenous in cells; host or cells: U937 cells, DMSO-differentiated, intact
Description: LTB4 induced calcium mobilization (Ca2+ flux) in U937 cells measured with fura-2. It is filed as cell-based. The protocol: The methods employed were as follows.
Cells were grown both in T-flasks and in Spinner culture.
Harvested cells were resuspended at 2×10^6 cells/ml in Krebs Ringer Hensilet buffer containing 0.1% BSA (RIA grade), 1.1 mM MgSO4, 1.0 mM CaCl2 and 5 mM HEPES (pH 7.4, buffer B). The diacetomethoxy ester of fura-2 (fura-2/AM) was added to a final concentration of 2 uM and cells incubated in the dark for 30 minutes at 37° C. The cells were centrifuged at 800×g for 10 minutes and resuspended at 2×10^6 cells/ml in fresh buffer B and incubated at 37° C. for 20 minutes to allow for complete hydrolysis of entrapped ester. The cells were centrifuged at 800×g for 10 minutes and resuspended in cold fresh buffer B at 5×10^6 cells/ml. Cells were maintained on ice in the dark until used for fluorescent measurements.
The fluorescence of fura-2 containing U937 cells was measured with a fluorometer designed by the Johnson Foundation Biomedical Instrumentation Group. Fluorometer is equipped with temperature control and a magnetic stirrer under the cuvette holder. […] All experiments were performed at 37° C. with constant mixing.
U937 cells were diluted with fresh buffer to a concentration of 1×10^6 cells/ml and maintained in the dark on ice. Aliquots (2 ml) of the cell suspension were put into 4 ml cuvettes and the temperature brought up to 37° C. (maintained in 37° C. water bath for 10 min). Cuvettes were transferred to the fluorometer and fluorescence measured for about one minute before addition of stimulants or antagonists and followed for about 2 minutes post stimulus. Agonists and antagonists were added as 2 ul aliquots.
Antagonists were added first to the cells in the fluorometer in order to detect potential agonist activity. […] [Ca^2+ ]i was calculated using the following formula: [formula] F was the maximum relative fluorescence measurement of the sample. Fmax was determined by lysing the cells with 10 ul of 10% Triton X-100 (final Concentration 0.02%). After Fmax was determined 67 ul of 100 mM EGTA solution (pH 10) was added to totally chelate the Ca^2+ and quench the fura-2 signal and obtain the Fmin. […] The Ki for calcium mobilization was determined using the formula: [formula]
Background: A change in cytosolic calcium serves as a functional read-out for many receptors and channels.

SMILES strings stand for the structures.

T1 sequence (Q15722 whole entry): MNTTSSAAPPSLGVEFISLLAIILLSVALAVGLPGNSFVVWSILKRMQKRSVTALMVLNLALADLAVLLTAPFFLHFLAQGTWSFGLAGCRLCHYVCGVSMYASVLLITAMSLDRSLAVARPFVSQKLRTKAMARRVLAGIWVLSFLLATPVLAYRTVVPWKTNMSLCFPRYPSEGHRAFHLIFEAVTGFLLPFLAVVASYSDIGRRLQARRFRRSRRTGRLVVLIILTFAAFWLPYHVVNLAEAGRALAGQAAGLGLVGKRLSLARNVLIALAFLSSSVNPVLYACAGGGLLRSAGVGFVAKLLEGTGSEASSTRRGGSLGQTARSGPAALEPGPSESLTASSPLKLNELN
T2 sequence (Q15722 whole entry): as above

For the compound `C#CCCCCCCCCCOc1ccccc1C(SCCC(=O)O)SCCC(=O)O`, in test [1], the affinity corresponds to a Ki of 10 µM.

Turning to `CCCCCCCCCCC#Cc1ccccc1C(SCCC(=O)O)SCCC(=O)O`, the Ki – broadly, the dissociation constant of the complex between target and ligand, obtained from inhibition or displacement – in test [1] stood at 7 µM.

As for `CCCCCCCCCCCOc1ccc(O)cc1C(SCCC(=O)O)SCCC(=O)O`, the Ki in test [1] worked out at 6 µM.

For `O=C(O)CCSC(SCCC(=O)O)c1ccc(C(F)(F)F)cc1CCCCCCCCc1ccccc1`, the Ki in test [1] came out at 1.3 µM; in test [2] it was 8.7 µM.

In test [1], `CCCCCCCCCC/C=C\c1ccccc1C(SCCC(=O)O)SCCC(=O)O` displayed a Ki of 7.3 µM.

`O=C(O)CCSC(SCCC(=O)O)c1ccccc1CCCCCCCCc1ccccc1`: the Ki stood at 4.4 µM in test [1] and 7 µM in test [2].

As for `CCCCCCCCCCCOc1ccccc1C(SCCC(=O)O)SCCC(=O)O`, the affinity in test [1], expressed as Ki, was 5.3 µM.

With `O=C(O)CCSC(SCCC(=O)O)c1ccccc1CCCCCCc1ccccc1`, in test [1], the affinity corresponds to a Ki of 4.5 µM.

Regarding `CCCCCCCCCCCCc1ccccc1C(SCCC(=O)O)SCCC(=O)O`, in test [1], the Ki was 6.5 µM.

`O=C(O)CCSC(SCCC(=O)O)c1cc(C(F)(F)F)ccc1CCCCCCCCc1ccccc1` displayed a Ki in test [1] of 9.6 µM.

Regarding `COc1ccc(SCCCCCCCc2ccccc2C(SCCC(=O)O)SCCC(=O)O)cc1`, the results for the Ki in test [1] and in test [2] were 1.2 µM and 7.6 µM, respectively.

On to `O=C(O)CCSC(SCCC(=O)O)c1ccccc1CCCCCCCSc1ccc(Br)cc1`, for which the Ki in test [1] was 2.8 µM; in test [2], 6.7 µM.

Turning to `O=C(O)CCSC(SCCC(=O)O)c1ccccc1CCCCCCCCCCc1ccccc1`, the Ki was 11 µM in test [1] and 4.8 µM in test [2].

For `O=C(O)CCSC(SCCC(=O)O)c1ccccc1CCCCCCCCCCCC(F)(F)F`, in test [2], the Ki worked out at 7.8 µM.

For `O=C(O)CCSC(SCCC(=O)O)c1ccccc1OCCCCCCCc1ccccc1`, in test [1], the affinity, expressed as Ki, was 5.3 µM.

On to `CCCCCCCCCCCOc1ccc(Br)cc1C(SCCC(=O)O)SCCC(=O)O`, for which the Ki turned out to be 4.2 µM in test [1] and 5.6 µM in test [2].

Consider `O=C(O)CCSC(SCCC(=O)O)c1ccccc1CCCCCCCSc1ccc(F)cc1`, for which the figures for the Ki in test [1] and in test [2] were 3.3 µM and 6.4 µM, respectively.

For `CCCCCCCCCCCCc1ccccc1C(SCCC(=O)O)[S+]([O-])CCC(=O)O` (stereo not drawn), the affinity in test [1], expressed as Ki, was 5.3 µM.

In the case of `CCCCCCCCCCCOc1ccc([N+](=O)[O-])cc1C(SCCC(=O)O)SCCC(=O)O`, the Ki in test [1] came to 2.2 µM; in test [2], 5 µM.

`CCCCCCCCCC/C=C/c1ccccc1C(SCCC(=O)O)SCCC(=O)O`: the affinity in test [1], expressed as Ki, was 4.3 µM.

On to `O=C(O)CCSC(SCCC(=O)O)c1cccc(CCCCCCCCc2ccccc2)c1`, for which the results for the Ki in test [1] and in test [2] were 2.1 µM and 5.2 µM, respectively.
